Results on 20 compounds are retold here after patent US10703756B2, “Pyrrolo[2,3-D]pyrimidinyl, pyrrolo[2,3-B]pyrazinyl, pyrrolo[2,3-B]pyridinyl acrylamides and epoxides thereof” (Pfizer Inc., priority 2015, dated 2020).

Assay [1] concerns IL-15 induced P-STAT5 in human PBMC. Kind of assay: PBMC IL-15 Induced P-STAT5. It counts as cell-based. Conditions: human PBMC, IL-15 final 41 ng/mL; read-out: PBMC IL15_pSTAT5_IC50. Put shortly:
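Flow cytometry gated on total lymphocytes measured STAT5 staining (Alexa Fluor 647 antibody, overnight, 4 °C) in fixed, methanol-permeabilised human PBMC. Cells had received compound for 15 min at 37 °C (0.2% DMSO final), followed by 41 ng/mL final human IL-15 for 15 min.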

Assay [2] concerns the target T1, JAK3 enzyme (Homo sapiens, UniProt P52333).
T1 sequence (P52333 1-1124): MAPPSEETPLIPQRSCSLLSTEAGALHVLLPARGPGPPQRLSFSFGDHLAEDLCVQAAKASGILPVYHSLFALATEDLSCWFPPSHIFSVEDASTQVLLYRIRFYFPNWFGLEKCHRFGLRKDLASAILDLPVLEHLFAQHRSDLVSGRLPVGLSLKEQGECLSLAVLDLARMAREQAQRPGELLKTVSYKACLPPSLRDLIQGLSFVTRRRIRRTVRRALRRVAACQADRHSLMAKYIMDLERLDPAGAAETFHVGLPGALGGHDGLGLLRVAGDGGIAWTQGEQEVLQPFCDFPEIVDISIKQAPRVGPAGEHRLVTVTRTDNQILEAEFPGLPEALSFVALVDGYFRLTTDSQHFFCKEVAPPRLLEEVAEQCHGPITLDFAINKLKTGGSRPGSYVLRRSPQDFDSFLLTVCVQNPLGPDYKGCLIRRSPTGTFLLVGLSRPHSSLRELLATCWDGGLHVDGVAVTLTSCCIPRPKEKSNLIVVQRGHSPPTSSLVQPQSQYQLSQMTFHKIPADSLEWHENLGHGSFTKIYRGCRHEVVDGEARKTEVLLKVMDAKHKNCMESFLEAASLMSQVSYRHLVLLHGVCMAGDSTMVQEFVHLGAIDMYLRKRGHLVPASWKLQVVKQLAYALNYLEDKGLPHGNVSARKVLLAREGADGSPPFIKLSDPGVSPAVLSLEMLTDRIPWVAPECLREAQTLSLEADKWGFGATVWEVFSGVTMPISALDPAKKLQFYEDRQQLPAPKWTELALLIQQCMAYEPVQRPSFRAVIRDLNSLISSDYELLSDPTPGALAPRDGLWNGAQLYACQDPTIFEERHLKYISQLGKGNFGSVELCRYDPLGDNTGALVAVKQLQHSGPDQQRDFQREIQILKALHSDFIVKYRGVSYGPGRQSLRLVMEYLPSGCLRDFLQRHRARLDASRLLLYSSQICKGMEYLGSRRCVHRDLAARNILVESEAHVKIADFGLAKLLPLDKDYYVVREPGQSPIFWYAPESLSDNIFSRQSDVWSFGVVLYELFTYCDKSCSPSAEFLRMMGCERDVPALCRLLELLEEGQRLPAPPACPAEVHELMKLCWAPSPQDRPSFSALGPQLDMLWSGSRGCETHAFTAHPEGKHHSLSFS
Kind of assay: JAK Caliper Enzyme Assay at 1 mM ATP. It counts as biochemical. Put shortly: (§1)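 Kinase activity is measured by separating phosphorylated from unphosphorylated peptide on a microfluidic chip. Per enzyme batch, protein concentration and incubation time are optimized to give 20%-30% substrate turnover.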

For assay [3], the target named is T1, JAK3 enzyme. Kind of assay: JAK Caliper Enzyme Assay at 4 μM ATP. It counts as biochemical. A digest of the protocol: as §1

As for `C=CC(=O)N1CC[C@@H](Nc2cnc3[nH]cc(C(=O)NCC4(O)CCC(F)(F)CC4)c3n2)[C@@H](OC)C1` [Example 268], the IC50 is > 10 µM in assay [1], 0.33 µM against JAK3 enzyme [2] and 0.00143 µM against JAK3 enzyme [3].
On to `C=CC(=O)N1CC[C@H](Nc2cnc3[nH]cc(C(=O)N[C@@H]4C[C@H]4C(F)(F)F)c3n2)[C@H](OC)C1` [Example 271, 2-{[(3R,4S)-1-acryloyl-3-methoxypiperidin-4-yl]amino}-N-[(1R,2R)-2-(trifluoromethyl)cyclopropyl]-5H-pyrrolo[2,3-b]pyrazine-7-carboxamide], for which the IC50 in assay [1] came to 1.14 µM; against JAK3 enzyme [2] it was 0.144 µM; against JAK3 enzyme [3], 0.000676 µM.
For `C=CC(=O)N1CCN(c2cnc3[nH]cc(C(=O)NC4CC(F)(F)C4)c3n2)C[C@@H]1CC(C)C` [Example 273, 2-[(3S)-4-acryloyl-3-(2-methylpropyl)piperazin-1-yl]-N-(3,3-difluorocyclobutyl)-5H-pyrrolo[2,3-b]pyrazine-7-carboxamide], in that order: 0.389 µM, 0.204 µM and 0.00159 µM.
For `C=CC(=O)N1CCN(c2cnc3[nH]cc(C(=O)NCC4CC(F)(F)C4)c3n2)C[C@@H]1CC(C)C` [Example 274, 2-[(3S)-4-acryloyl-3-(2-methylpropyl)piperazin-1-yl]-N-[(3,3-difluorocyclobutyl)methyl]-5H-pyrrolo[2,3-b]pyrazine-7-carboxamide], in that order: 0.507 µM, 0.157 µM and 0.000984 µM.
The like results for `C=CC(=O)N1CCN(c2cnc3[nH]cc(C(=O)NCC(C)(F)F)c3n2)CC1(C)C` [Example 275, 2-(4-acryloyl-3,3-dimethylpiperazin-1-yl)-N-(2,2-difluoropropyl)-5H-pyrrolo[2,3-b]pyrazine-7-carboxamide] were, in that order, 1.03 µM, 0.418 µM and 0.00319 µM.
As for `C=CC(=O)N1CCN(c2cnc3[nH]cc(C(=O)NCC4CC(F)(F)C4)c3n2)CC1` [Example 276, 2-(4-acryloylpiperazin-1-yl)-N-[(3,3-difluorocyclobutyl)methyl]-5H-pyrrolo[2,3-b]pyrazine-7-carboxamide], the IC50 in assay [1] came out at 0.623 µM; against JAK3 enzyme [2], 0.111 µM; against JAK3 enzyme [3] it was 0.000479 µM.
In the case of `C=CC(=O)N1CC[C@H](Nc2cnc3[nH]cc(C(=O)NC4CC(F)(F)C4)c3n2)[C@H](OC)C1` [Example 277, 2-{[(3R,4S)-1-acryloyl-3-methoxypiperidin-4-yl]amino}-N-(3,3-difluorocyclobutyl)-5H-pyrrolo[2,3-b]pyrazine-7-carboxamide], the results for the IC50 (in assay [1]; on JAK3 enzyme [2]; against JAK3 enzyme [3]) were 2.32 µM, 0.155 µM and 0.00059 µM, respectively.
For the compound `C=CC(=O)N1CCC(C)(Nc2cnc3[nH]cc(C(=O)NCC)c3n2)CC1` [Example 281, 2-[(1-acryloyl-4-methylpiperidin-4-yl)amino]-N-ethyl-5H-pyrrolo[2,3-b]pyrazine-7-carboxamide], the IC50 was found to be 1.22 µM in assay [1], 0.073 µM against JAK3 enzyme [2] and 0.00102 µM on JAK3 enzyme [3].
For `C=CC(=O)N1CCN(c2cnc3[nH]cc(C(=O)NCC(C)(C)C)c3n2)CC1(C)C` [Example 285, 2-(4-acryloyl-3,3-dimethylpiperazin-1-yl)-N-(2,2-dimethylpropyl)-5H-pyrrolo[2,3-b]pyrazine-7-carboxamide], in that order: 1.79 µM, 0.515 µM and 0.00405 µM.
For `C=CC(=O)N1CCN(c2cnc3[nH]cc(C(=O)NC4CCC4)c3n2)CC1(C)C` [Example 289, 2-(4-acryloyl-3,3-dimethylpiperazin-1-yl)-N-cyclobutyl-5H-pyrrolo[2,3-b]pyrazine-7-carboxamide], in that order: 0.454 µM, 0.209 µM and 0.00129 µM.
As for `C=CC(=O)N1CC[C@H](Nc2cnc3[nH]cc(C(=O)NC[C@H](C)CC(F)(F)F)c3n2)[C@H](OC)C1` [Example 294, 2-[((3R,4S)-1-acryloyl-3-methoxypiperidin-4-yl)amino]-N-([2R]-4,4,4-trifluoro-2-methylbutyl)-5H-pyrrolo[2,3-b]pyrazine-7-carboxamide], the figures for the IC50 (in assay [1]; against JAK3 enzyme [2]; at JAK3 enzyme [3]) were 0.575 µM, 0.062 µM and 0.00116 µM, respectively.
Regarding `C=CC(=O)N1CCC(C)(Nc2cnc3[nH]cc(C(=O)NCC(C)(F)F)c3n2)CC1` [Example 296, 2-[(1-acryloyl-4-methylpiperidin-4-yl)amino]-N-(2,2-difluoropropyl)-5H-pyrrolo[2,3-b]pyrazine-7-carboxamide], the IC50 in assay [1] amounted to 0.609 µM; on JAK3 enzyme [2] it was 0.057 µM; on JAK3 enzyme [3], 0.000519 µM.
Consider `C=CC(=O)N1CC[C@@H](Nc2cnc3[nH]cc(C(=O)NCC(C)(C)C)c3n2)[C@@H](OC)C1` [Example 300, 2-{[(3S,4R)-1-acryloyl-3-methoxypiperidin-4-yl]amino}-N-(2,2-dimethylpropyl)-5H-pyrrolo[2,3-b]pyrazine-7-carboxamide], for which the IC50 in assay [1] turned out to be 0.7 µM; against JAK3 enzyme [2], 0.092 µM; at JAK3 enzyme [3], 0.00069 µM.
As to `C=CC(=O)N1CCN(c2cnc3[nH]cc(C(=O)NCC4(O)CCC(F)(F)CC4)c3n2)C[C@@H]1CC(C)C` [Example 302, 2-[(3S)-4-acryloyl-3-(2-methylpropyl)piperazin-1-yl]-N-[(4,4-difluoro-1-hydroxycyclohexyl)methyl]-5H-pyrrolo[2,3-b]pyrazine-7-carboxamide], the IC50 in assay [1] was found to be 1.19 µM; against JAK3 enzyme [2], 0.385 µM; against JAK3 enzyme [3], 0.00289 µM.
The like results for `C=CC(=O)N1CCC(C)(Nc2cnc3[nH]cc(C(=O)NCC4CC(F)(F)C4)c3n2)CC1` [Example 306, 2-[(1-acryloyl-4-methylpiperidin-4-yl)amino]-N-[(3,3-difluorocyclobutyl)methyl]-5H-pyrrolo[2,3-b]pyrazine-7-carboxamide] were, in that order, 1.57 µM, 0.107 µM and 0.000705 µM.
Turning to `C=CC(=O)N1CCN(c2cnc3[nH]cc(C(=O)NCC)c3n2)CC1(C)C` [Example 307, 2-(4-acryloyl-3,3-dimethylpiperazin-1-yl)-N-ethyl-5H-pyrrolo[2,3-b]pyrazine-7-carboxamide], the IC50 in assay [1] worked out at 2.13 µM; on JAK3 enzyme [2], 1.08 µM; at JAK3 enzyme [3] it was 0.00982 µM.
As to `C=CC(=O)N1CC[C@@H](Nc2cnc3[nH]cc(C(=O)NCC4CC(F)(F)C4)c3n2)[C@@H](OC)C1` [Example 309, 2-{[(3S,4R)-1-acryloyl-3-methoxypiperidin-4-yl]amino}-N-[(3,3-difluorocyclobutyl)methyl]-5H-pyrrolo[2,3-b]pyrazine-7-carboxamide], the IC50 is 0.526 µM in assay [1], 0.059 µM on JAK3 enzyme [2] and 0.000898 µM against JAK3 enzyme [3].
For `C=CC(=O)N1CCN(c2cnc3[nH]cc(C(=O)NCC(F)(F)F)c3n2)C[C@@H]1CC(C)C` [Example 311, 2-[(3S)-4-acryloyl-3-(2-methylpropyl)piperazin-1-yl]-N-(2,2,2-trifluoroethyl)-5H-pyrrolo[2,3-b]pyrazine-7-carboxamide], in that order: 0.586 µM, 0.223 µM and 0.00178 µM.
`C=CC(=O)N1CC[C@H](Nc2cnc3[nH]cc(C(=O)NCC4CC(F)(F)C4)c3n2)[C@H](OC)C1` [Example 322, 2-{[(3R,4S)-1-acryloyl-3-methoxypiperidin-4-yl]amino}-N-[(3,3-difluorocyclobutyl)methyl]-5H-pyrrolo[2,3-b]pyrazine-7-carboxamide]: the IC50 in assay [1] amounted to 0.428 µM; against JAK3 enzyme [2] it was 0.047 µM; at JAK3 enzyme [3] it was 0.000269 µM.
For `C=CC(=O)N1CC[C@@H](Nc2cnc3[nH]cc(C(=O)NC[C@H](C)CC(F)(F)F)c3n2)[C@@H](OC)C1` [Example 323, 2-{[(3S,4R)-1-acryloyl-3-methoxypiperidin-4-yl]amino}-N-[(2R)-4,4,4-trifluoro-2-methylbutyl]-5H-pyrrolo[2,3-b]pyrazine-7-carboxamide], in that order: 0.43 µM, 0.069 µM and 0.000392 µM.
